This note sets out measurements from patent publication US6458960B1, “Sulfonamide derivatives” (Nippon Kayaku Kabushiki Kaisha, priority 1997, dated 2002).

≈ marks a conversion by molar mass, not a printed value.

Experiment [1] relates to A2780 (Humane Ovarian Cancer Cell). Description: Anti-tumor in vitro test using A2780 (MTT). The experiment is classed as cell-based. As to conditions: Homo sapiens, A2780, 72 h, 3 days incubation, absorbance at 540 nm, read-out: IC50 (A2780 growth inhibition). How it is done:
A2780 cells that were suspended on a RPMI 1640 culture medium containing 10% calf serum, penicillin (50 U/ml), and streptomycin (50 μg/ml were seeded in a 96 well flat microplate by 1000 cells (0.2 ml) well, and cultured in a 5% carbon dioxide atmospheric incubator at 37° C. for 1 day. The compounds of the present invention that were dissolved in dimetylsulfoxide anddiluted with a RPMI 1640 containing 10% calf serum to prepare the samples, provided that dimetylsulfoxide was restricted to 0.2% and below in concentration.
The Supernatant liquids of the above A2780 cells wells were removed by aspiration, and then each 0. 2 ml of the prepared samples were added to the wells, which were incubated in a 5% carbon dioxide atmospheric incubator at 37° C. for 3 days. After the incubation, each 0.01 ml of MTT solutions(3-(4,5-dimethylthiazole-2-yl)-2,5-dipheny-ltetra zolium bromide, 5 mg/ml) were added to the wells, which were incubated for another 2 hrs. After the supernatant liquids in the wells were removed by aspiration, the formazans formed in the wells were dissolved in 0.1 ml of dimetylsulfoxide, and absorbances at 540 nm were measured by a micro plate reader to determine indices of live cells counts in the wells.
Inhibitory Rate(%)=[(C−T)/C]×100
where T is absorbance in the well with a test compound and C is absorbance in the well without the compound.

Experiment [2] deals with collagen-induced arthritis in mice. The experiment can be described thus: Prophylactic experiment of collagen-induced arthritis in mice. The experiment is classed as in vivo. The note with it: last day of test. The protocol:
The suspension of M. tuberculosis H37RA in Freund […] adjuvant (2 mg/ml) was mixed with 0.3% typeII collagen (extracted from bovine articular cartilage, Collagen Gijutsu KensyU Kai) in their equal amounts to form an emulsion, 0.1 ml of which was injected subcutaneously into the base of the tail of mice to sensitize it. After twenty-one days, 0.3% type II collagen was diluted with physiological saline solution to the one sixth concentration of the solution, 0.2 ml of which was injected intraperitoneally to sensitize secondarily. The mice that the first sensitizations caused to fall into arthritis were excluded from the test. The suspensions of the compounds(in the Example 13, 27, and 28) in 0.5% sodium carboxy methylcellulose (CMC—Na) were administrated orally to the test group mice once a day for 5 weeks from the day after the second sensitization. 0.5% CMC—Na solutions were administrated to the control group mice to be compared with. Each group was composed of eight mice. […] Scores and their standards are as follows.
1: Tumefaction or rubor in only one finger(or heel)
2: Tumefaction or rubor in two or above fingers (or heels) or in parts of fore (or hind) paw(s)
3: Tumefaction or rubor in the wholes of fore (or hind) paw(s) including joints
4: Ankylosis in the joints of finger(s) (or heel(s)) or fore (or hind) paw(s)

The target of experiment [3] is T1, microtubule proteins originated from swine brain (Sus scrofa, UniProt P02550+P02554).
T1 construct: Microtubule proteins was extracted from swine brain by the Shelansky method; from tissue; host or cells: swine brain
Description: Tubulin polymerization inhibitory test (turbidity measurement). The experiment is classed as biochemical. As to conditions: microtubule proteins 2 mg/ml, GTP 1 mM, 37° C. for 30 min, absorbance at 340 nm; read-out: IC50 (tubulin polymerization inhibition) (converted). The protocol:
Tubulin polymerization inhibitory test using microtubule proteins originated from swine brain: Microtubule proteins was extracted from swine brain by the Shelansky method(Tanpakusitu jikkenhou, Zoku-Seikagaku Jikken Kouza, Vol.6, “Structure and Function of Cytoskeleton” (1st Vol.), Tokyo Kagaku Dojin). Polymerization of microtubule proteins was assayed by turbidity measurement.
Change in turbidity can be measured by an absorptiometer. The compounds of the present invention were dissolved in dimethylsulfoxide to prepare their test solutions. To 245 μl of a RB solution containing microtubule proteins(2 mg/ml)and GTP(1 mM) was added 5μl of either an above test solution or dimethylsulfoxide to prepare a sample, which was incubated at 37° C. for 30 min. […] Absorbance at 340 nm of the compound was previously measured.
Inhibitory Rate(%)=[1−(T−Cmin)/(Cmax−Cmin)]×100
where T is absorbance of the incubated sample with a test compound, Cmax is absorbance of the incubated sample without the compound, and Cmin is the non-incubated sample without the compound.

[4] abbreviates: 50 mg/kg orally once a day for 5 weeks.

The term IC50 denotes the concentration needed to halve the response being measured.

T1 sequence (P02550 whole entry): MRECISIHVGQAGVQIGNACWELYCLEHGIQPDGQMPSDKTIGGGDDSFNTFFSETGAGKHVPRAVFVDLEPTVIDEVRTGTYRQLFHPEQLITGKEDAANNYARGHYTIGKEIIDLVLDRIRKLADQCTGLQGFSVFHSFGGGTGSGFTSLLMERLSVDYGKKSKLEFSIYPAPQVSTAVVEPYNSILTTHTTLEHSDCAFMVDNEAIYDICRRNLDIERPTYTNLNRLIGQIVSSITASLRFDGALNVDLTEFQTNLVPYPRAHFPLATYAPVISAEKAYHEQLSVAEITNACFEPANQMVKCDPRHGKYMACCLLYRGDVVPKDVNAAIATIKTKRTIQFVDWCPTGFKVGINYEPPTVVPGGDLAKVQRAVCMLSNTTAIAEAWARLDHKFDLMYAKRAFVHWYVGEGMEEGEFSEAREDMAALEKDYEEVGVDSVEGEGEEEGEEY
T1 sequence (P02554 whole entry): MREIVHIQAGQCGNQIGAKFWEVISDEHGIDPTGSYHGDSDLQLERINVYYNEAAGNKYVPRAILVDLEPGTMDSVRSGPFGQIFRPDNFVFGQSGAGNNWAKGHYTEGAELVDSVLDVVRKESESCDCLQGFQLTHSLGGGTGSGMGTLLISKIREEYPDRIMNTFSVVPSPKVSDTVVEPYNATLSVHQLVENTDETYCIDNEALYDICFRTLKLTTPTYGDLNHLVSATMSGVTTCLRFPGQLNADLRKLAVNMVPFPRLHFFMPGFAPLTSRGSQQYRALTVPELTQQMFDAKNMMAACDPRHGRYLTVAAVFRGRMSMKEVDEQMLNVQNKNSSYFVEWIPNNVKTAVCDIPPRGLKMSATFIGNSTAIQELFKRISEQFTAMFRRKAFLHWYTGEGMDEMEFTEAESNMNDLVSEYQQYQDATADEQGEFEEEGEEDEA

Consider `CCc1noc(C)c1C(=O)Nc1ccccc1NS(=O)(=O)c1ccc(OC)cc1` [Example 27, N-[2-(4-Methoxybenzenesulfonamide)phenyl]-3-ethyl-5-methyl-4-isoxazole Carboxamide], for which the IC50 in experiment [1] is 0.034 µg/mL (≈ 0.0818 µM); in experiment [3], 4.45 µM. For the same compound, in experiment [2] (setting [4]), the “Averaged score (arthritis, 0 to 4 per limb, maximum 16)” value amounted to 1.7 ± 1.1. As for `COc1ccc(S(=O)(=O)Nc2ccccc2NC(=O)c2c(C)noc2C)cc1` [Example 13, N-[2-(4-Methoxybenzenesulfonamide)phenyl]-3,5-dimethyl-4-isoxazole Carboxamide], the IC50 in experiment [1] is 0.01 µg/mL (≈ 0.0249 µM); in experiment [3], 3.49 µM. The “Averaged score (arthritis, 0 to 4 per limb, maximum 16)” value in experiment [2] (25 mg/kg orally once a day for 5 weeks) is 2.3 ± 0.8; in experiment [2] (setting [4]), 0.4 ± 0.4.

With `COc1ccc(S(=O)(=O)Nc2ccccc2NC(=O)c2cccn2C)cc1` [Example 26, N-[2-(4-Methoxybenzenesulfonamide)phenyl]-N-methyl-2-pyrrole Carboxamide], the IC50 is 0.034 µg/mL (≈ 0.0882 µM) in experiment [1] and 4.93 µM in experiment [3]. As to `COc1ccc(S(=O)(=O)Nc2ccccc2NC(=O)c2c(C)noc2-c2ccccc2)cc1` [Example 32, N-[2-(4-Methoxybenzenesulfonamide)phenyl]-3-methyl-5-phenyl-4-isoxazole Carboxamide], the IC50 in experiment [1] stood at 0.62 µg/mL (≈ 1.34 µM). Take `COc1ccc(S(=O)(=O)Nc2ccccc2NC(=O)c2cn(C)nc2C)cc1` [Example 2, N-[2-(4-Methoxybenzenesulfonamide)phenyl]-3-dimethyl-4-(1H-pyrazole)carboxamide]: the IC50 is 0.58 µg/mL (≈ 1.45 µM) in experiment [1] and 89.9 µM in experiment [3]. For `COc1ccc(S(=O)(=O)Nc2ccccc2NC(=O)C2CC2)cc1` [Example 23, N-[2-(4-Methoxybenzenesulfonamide)phenyl]-cyclopropyl Carboxamid] the same measures were 0.006 µg/mL (≈ 0.0173 µM) and 3.46 µM.

As to `COc1ccc(S(=O)(=O)Nc2ccccc2NC(=O)c2c(C)noc2C(C)C)cc1` [Example 30, N-[2-(4-Methoxybenzenesulfonamide)phenyl]-5-isopropyl-3-methyl-4-isoxazole Carboxamide], the IC50 in experiment [1] is 0.16 µg/mL (≈ 0.373 µM); in experiment [3], 7.68 µM. With `CCc1oncc1C(=O)Nc1ccccc1NS(=O)(=O)c1ccc(OC)cc1` [Example 14, N-[2-(4-Methoxybenzenesulfonamide)phenyl]-5-ethyl-4-isoxazole Carboxamide], the IC50 in experiment [1] was 0.036 µg/mL (≈ 0.0897 µM); in experiment [3] it was 4.11 µM.

Turning to `Cc1ccc(S(=O)(=O)Nc2ccccc2NC(=O)c2cnoc2C)cc1` [Example 7, N-[2-(p-Toluenesulfonamide)phenyl]-5-methyl-4-isoxazole Carboxamide], the IC50 in experiment [1] was 0.2 µg/mL (≈ 0.538 µM); in experiment [3], 13.7 µM. Regarding `COc1ccc(S(=O)(=O)Nc2ccccc2NC(=O)C2CSCN2)cc1.Cl` (racemic) [Example 15, (±)-N-[2-(4-Methoxybenzenesulfonamide)phenyl]-4-thiazolidine Carboxamide HCl Salt], the IC50 in experiment [1] is 0.025 µg/mL; in experiment [3], 4.3 µM.

As to `COc1ccc(S(=O)(=O)Nc2ccccc2NC(=O)C2CCCCC2)cc1` [Example 22, N-[2-(4-Methoxybenzenesulfonamide)phenyl]-cyclohexyl Carboxamide], the IC50 was 0.14 µg/mL (≈ 0.36 µM) in experiment [1] and 4.89 µM in experiment [3].

Regarding `Cc1oncc1C(=O)Nc1ccccc1NS(=O)(=O)c1ccc(F)cc1` [Example 9, N-[2-(4-Fluorobenzenesulfonamide)phenyl]-5-methyl-4-isoxazole Carboxamide], the IC50 in experiment [1] is 13 µg/mL (≈ 34.6 µM); in experiment [3] it was 400 µM. The matching figures for `CCc1noc(CC)c1C(=O)Nc1ccccc1NS(=O)(=O)c1ccc(OC)cc1` [Example 29, N-[2-(4-Methoxybenzenesulfonamide)phenyl]-3,5-diethyl-4-isoxazole Carboxamide]: 0.14 µg/mL (≈ 0.326 µM) and 9.2 µM. The matching figures for `COc1ccc(S(=O)(=O)Nc2ccccc2NC(=O)c2cnoc2C)cc1OC` [Example 11, N-[2-(3,4-Dimethoxybenzenesulfonamide)phenyl]-5-methyl-4-isoxazole Carboxamide]: 0.68 µg/mL (≈ 1.63 µM) and 359 µM. For `Cc1oncc1C(=O)Nc1ccccc1NS(=O)(=O)c1ccccc1` [Example 8, N-[2-(Benzenesulfonamide)phenyl]-5-methyl-4-isoxazole Carboxamide] the same measures were 6.7 µg/mL (≈ 18.7 µM) and 644 µM. For `COc1ccc(S(=O)(=O)Nc2ccccc2NC(=O)[C@H]2CCCN2)cc1.Cl` [Example 17], the IC50 in experiment [1] came to 1.4 µg/mL. On to `COc1ccc(S(=O)(=O)Nc2ccccc2NC(=O)C2CCCC2)cc1` [Example 25], for which the IC50 is 0.05 µg/mL (≈ 0.134 µM) in experiment [1] and 4.14 µM in experiment [3]. For `COc1ccc(S(=O)(=O)Nc2ccccc2NC(=O)c2csnc2C)cc1` [Example 4, N-[2-(4-Methoxybenzenesulfonamide)phenyl]-3-methyl-4-isothiazole Carboxamide] the same measures were 0.017 µg/mL (≈ 0.0421 µM) and 3.47 µM. In the case of `COc1ccc(S(=O)(=O)Nc2ccccc2NC(=O)c2c(-c3ccccc3)noc2C)cc1` [Example 31, N-[2-(4-Methoxybenzenesulfonamide)phenyl]-5-methyl-3-phenyl-4-isoxazole Carboxamide], the IC50 in experiment [1] is 0.3 µg/mL (≈ 0.647 µM).

For `COc1ccc(S(=O)(=O)Nc2ccccc2NC(=O)c2nc(C)oc2C)cc1` [Example 5, N-[2-(4-Methoxybenzenesulfonamide)phenyl]-2,5-dimethyl-4-oxazole Carboxamide], the 50% inhibitory concentration (IC50) in experiment [1] was determined as 7.2 µg/mL (≈ 17.9 µM).

On to `COc1ccc(S(=O)(=O)Nc2ccccc2NC(=O)c2csc(C)n2)cc1` [Example 3, N-[2-(4-Methoxybenzenesulfonamide)phenyl]-2-methyl-4-thiazole Carboxamide], for which the IC50 is 0.22 µg/mL (≈ 0.545 µM) in experiment [1] and 94.2 µM in experiment [3]. The matching figures for `COc1ccc(S(=O)(=O)Nc2ccccc2NC(=O)C2CCC2)cc1` [Example 24, N-(2-(4-Methoxybenzenesulfonamide)phenyl]-cyclobutyl Carboxamid]: 0.006 µg/mL (≈ 0.0166 µM) and 3.19 µM.

For the compound `COc1ccc(S(=O)(=O)Nc2ccccc2NC(=O)C2CCCCN2)cc1.Cl` (racemic) [Example 20, (±)-N-[2-4-Methoxybenzenesulfonamide)phenyl]-2piperidine Carboxamide HCl Salt], in experiment [1], the IC50 worked out at 6.8 µg/mL.

For the compound `COc1ccc(S(=O)(=O)Nc2ccccc2NC(=O)c2ncoc2C)cc1` [Example 21, N-[2-(4-Methoxybenzenesulfonamide)phenyl]-5-methyl-4-oxazole Carboxamide], the IC50 is 0.079 µg/mL (≈ 0.204 µM) in experiment [1] and 12.1 µM in experiment [3]. Take `COc1ccc(S(=O)(=O)Nc2ccccc2NC(=O)c2cn(C)cn2)cc1` [Example 6, N-[2-(4-Methoxybenzenesulfonamide)phenyl]-1-methyl-1H-imidazole-4-carboxamide]: the figures for the IC50 in experiment [1] and in experiment [3] were 0.14 µg/mL (≈ 0.362 µM) and 101 µM, respectively. With `COc1ccc(S(=O)(=O)Nc2ccccc2NC(=O)c2cnoc2C)cc1` [Example 1, N-[2-(4-Methoxybenzenesulfonamide)phenyl]-5-methyl-4-isoxazole Carboxamide], the IC50 in experiment [1] was 0.023 µg/mL (≈ 0.0594 µM); in experiment [3] it was 3.1 µM.

Regarding `COc1ccc(S(=O)(=O)Nc2ccccc2NC(=O)[C@@H]2CCCN2)cc1.Cl` [Example 12, N-[2-(4-Methoxybenzenesulfonamide)phenyl]-(L)-prolinamide HCl Salt], in experiment [1], the IC50 was determined as 9.7 µg/mL.
